Test results reported in US20060128997A1, “New method for the preparation of 1,5-bis(4-hydroxy-3-metoxy-phenyl)-penta-1,4-dien-3-one and derivatives with antitumoral properties” (priority 2003, published 2006).

Columns and labels:
[1] = system: NCIADR (Mamma tumor which expresses the phenotype resistance against multiple drugs); experiment: Antiproliferate test in tumoral human cells, sulforrodamina B essay; assay type: cell-based; settings: NCI-ADR cell line; concentration not clearly stated (from 25 μg/mL)
Protocol: (§1) Methodology utilized to perform the antitumoral tests:
(§2) Report of the Antiproliferate Test in Tumoral Human Cells with the Sulforrodamina B Essay
(§3) The cell lines used in the essays, described in the table 1, were maintained in recipients of 25 cm^2 (Nunc®), with 5 mL of culture medium RPMI 1640 supplemented with 5% bovine foetal serum (RPMI/SFB), at 37° C. in atmosphere of 5% of CO2 and 100% of humidity.
(§4) […] of cells in medium RPMI/SFB with 50 μg/mL of Gentamicin were inoculated in its respectives densities of inoculation, in plates of 96 compartments and incubated for 24 hours at 37° C. in atmosphere of 5% of CO2 and 100% of humidity.
(§5) After 24 hours, […] of the test substance were added in the following concentrations of 250; 25; 2.5; 0.2 μg/mL diluted in RPMI/SFB/gentamicin. In this moment the reading of one plate was performed for the determination of the T0 (cell control in the moment of the adding the samples). The other plates were incubated for 48 hours After this period the experiment was paused by adding the trichlorine acetic acid to further determine the protein content by means of […] essay with the sulforrodamina B.
(§6) The stocked solutions were developed by diluting the samples in dimethyl sulfoxide (DMSO) in the concentration of 0.1 g/mL. That solution was diluted by 400 times in RPMI/SFB/gentamicina to be added in the plates of 96 compartments being obtained so the a ideal concentration of DMSO (Skehan e cols. 1990).
(§7) At the end of the test, the plates of 96 compartments were centrifuged for 3 minutes at 2000 rpm, and they were fixed with 50 μL of a solution at 50% of trichloroacetic acid (TCA) at 4° C. To complete the cellular fixation, the plates were incubated for 1 hour at 4° C.
(§8) The plates were submitted to four consecutive washes with distillated water to remore the residues of TCA, medium, SFB and secondary metabolic and maintained at room temperature until the complete drying.
(§9) A coloration was performed by the adding of 50 μL SRB at 0.4% (weight/volume) diluted in acetic acid at 1%, and maintained at 4° C. for 30 minutes. Further, they were washed by 4 consecutive times with a solution of acetic acid 1%. The residue of the washing of the solution was removed and the plates were dried again at room temperature. The colorant linked to the cellular protein was diluted with a solution of Trizma Base (Sigma®) in concentration of […] and pH 10.5 for 5 minutes in ultrasonic bath. The spectrophotometric of absorbancy reading was performed in 560 nm in a micro plates lector (Labsystems Labsystems Multiskan® MCC/340).
(§10) The absorbancy averages were assessed having discounted its respective nulls and by means of the formula shown below was determined the growth inhibition (IC) of each tested sample.
(§11) If T≧T0 but <C, the drug was cytostatic and the formula used is 100×[(T−To)/(C−T0)]
(§12) If T<T0 the drug was cytotoxic and the formula used is […]
(§13) Considering that T is the absorbency average of the treated cell C is the cell control and T0 is the cell control in the addition day.
(§14) The obtained result was subtracted from 100% so obtaining the percentage of growth inhibition. The samples were considered actives since they presented growth inhibition dependant dose higher than 50% and selective lineage, that is, the preferential activity for only one type of tumoral cell or with cytostatic and/or killer cell effect well distinguished among the cell lines.
(§15) All the assays were performed in triplicates so that the presented results make reference to a representative experiment. The standard deflection from the average was always lower than 5%.

[2] = system: all cell lines (nine different types of human cancer); experiment: Antiproliferate test, sulforrodamina B essay, whole panel of cell lines; assay type: cell-based
Protocol: as §1, §2, §3, §4, §5, §6, §7, §8, §9, §10, §11, §12, §13, §14, §15

HT-1080 = settings: literature values (Banskota, Kimoto); unit not given; cited from earlier work
Colon L5-26 = settings: literature values (Banskota, Kimoto); unit not given; cited from earlier work

Structure (SMILES)	growth inhibition [1]	concentration from which cytostatic activity (growth inhibition) is presented ([2]; all cell lines) [µg/mL]	concentration from which cytotoxic / killer cell activity (cellular death) is presented ([2]; all cell lines of the panel) [µg/mL]	selectivity for the studied cell lines, in words ([2]; panel of cell lines)	Cytotoxicity HT-1080 (HT-1080)	Cytotoxicity Colon L5-26 (Colon L5-26)
COc1cc(C=CC(=O)C=Cc2ccc(OC(C)=O)c(OC)c2)ccc1OC(C)=O [EHB1, 1,5-bis(3-metoxy-4-acetoxyphenyl)-penta-1,4-dien-3-one]	around 25%	≥ 0.25	≥ 25	not selective		
CC(C)=CCc1cc(C=CC(=O)O)ccc1OC(=O)CCc1ccccc1 [Compound 4, 4-dihydrocinnamoyloxy-3-prenylcinnamic acid]					25.94	77.90
CC(C)=CCc1cc(C=CC(=O)O)cc2c1OC(C)(C)C=C2 [Compound 2, 2,2-dimethyl-8-prenyl-2H-1-benzopyranbenzopyrene-6-yl-2-propenoic acid]					46.86	50.22
CC(C)=CCc1cc(C=CC(=O)O)cc2c1OC(C)(C)C(O)C2 (stereo not shown) [Compound 1, 3-hydroxy-2,2-dimethyl-8-prenylchromane-6-propenoic acid]					71.53	77.07
